Test results taken from patent EP0642504B1 (priority 1991, dated 1993).

Tested on: NMDA receptor
Test: NMDA-blocking response in Xenopus oocytes injected with rat brain RNA (two-electrode voltage clamp)
Assay type: cell-based
Text: The oocyte is the most widely used system for studying the molecular, biophysical and pharmacological properties of expressed voltage- or transmitter-operated ion channels. This giant cell offers several advantages for this type of studies. It can be readily used for two-electrode voltage clamp studies, translates injected mRNA from different sources and functionally expresses the translated proteins, and it is also readily amenable for intracellular microinjections. Importantly, the recordings of transmitter- or voltage-incuded currents in a single oocyte are extremely stable and can be done, without rundown, for 2-3 hours; this allows the performance of a full dose-response relation in single oocytes.
Neuronal receptors for excitatory amino acid (EAA) are becoming increasingly important for the understanding of normal and pathological brain function. Quantitative pharmacological studies of EAA receptor/ion channel complex are difficult to study in neurons. Therefore, Xenopus oocyte injected with brain mRNA is now the preparation of choice.
The response to N-methyl-D-aspartate (NMDA) in oocytes injected with rat brain mRNA was characterized and the effects of HU-245 were studied.
Female Xenopus were anesthetized by immersion in water containing 0.15% tricaine methanesulfonate and a small incision was made in the lower adbomen. Ovary fragments were removed into ND-96. […]

Compound: CCCCCCC(C)(C)c1cc(OC(C)=O)c2c(c1)OC(C)(C)[C@H]1CC=C(C(=O)O)C[C@H]21 [HU-245, (3S,4S)-THC-DMH-7-oic acid, acetate]
- response to NMDA (10-^6M compound, 10-^4 M NMDA and 5x10-^6 M glycine, membrane potential -60mV, 1 µM): 55 % of control
- reversibility of the effect on the NMDA response (upon return to ND 96 solution): reversible
